Values joined by “and” are separate entries in the source; they are usually repeats but may differ in a detail not shown here. Equal values may be shown once. Where a name gives a salt, the structure may show the parent alone. Read-outs that look alike come from different tables or passages of the source.
What was measured:
T47D cells = settings: 5 days
[1] = tested on: mouse epiblast stem cell-derived OPCs; experiment: In vitro phenotypic screening of OPCs (MBP+ oligodendrocytes at 72 h); assay type: cell-based
Protocol: Then, 40,000 cells were seeded per well in differentiation medium and allowed to attach for 30 min before addition of drug. […] Sterols were added to cells as an ethanol solution (0.2% final ethanol concentration). […] Cells were incubated under standard conditions (37° C., 5% CO2) for 3 days and fixed with 4% paraformaldehyde (PFA) in phosphate buffered saline (PBS) for 20 min. Fixed plates were washed with PBS (200 μL per well) twice, permeabilized with 0.1% Triton X-100 and blocked with 10% donkey serum (v/v) in PBS for 40 min. […] Nuclei were visualized by DAPI staining (Sigma; 1 μg/ml).

OPCs = experiment: GC/MS-based sterol profiling in OPCs; assay type: cell-based, mouse; settings: for sterol levels / sterol intermediate accumulation in OPCs: 24 h treatment (siRNA 96 h)
EBP = biological target: T1, EBP (Mus musculus, UniProt P70245); experiment: EBP enzymatic assay (GC/MS); assay type: biochemical; settings: 10 μM, zymostenol 25 μM
T1 construct: active EBP was obtained from mouse microsomes; from tissue
T1 sequence (P70245 1-230): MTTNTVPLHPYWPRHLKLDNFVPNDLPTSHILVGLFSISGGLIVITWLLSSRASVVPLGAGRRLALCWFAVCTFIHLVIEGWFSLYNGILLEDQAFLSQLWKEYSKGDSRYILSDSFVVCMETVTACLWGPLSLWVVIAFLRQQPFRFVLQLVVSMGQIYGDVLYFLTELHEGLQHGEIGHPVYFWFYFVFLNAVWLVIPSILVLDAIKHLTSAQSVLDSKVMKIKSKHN

OPCs (OPC-1 derivation) = experiment: High-throughput screening of 3,000 bioactive small molecules for MBP+ oligodendrocyte formation; settings: 2 μM, 72 h; for % Oligos: MBP+; for fold-change in % MBP + oligodendrocytes: relative to DMSO controls of the same plate
Description: Plates were imaged on the Operetta High Content Imaging and Analysis system (PerkinElmer) and a set of 6 fields captured from each well resulting in an average of 1200 cells being scored per well. Analysis (PerkinElmer Harmony and Columbus software) began by identifying intact nuclei stained by DAPI; that is, those traced nuclei that were larger than 300 μm^2 in surface area. Each traced nucleus region was then expanded by 50% and cross-referenced with the […] (MBP) stain to identify oligodendrocyte nuclei, and from this the percentage of oligodendrocytes was calculated. In some experiments, the total process length of MBP+ oligodendrocytes was calculated as previously described.
EpiSC-derived OPCs were grown and expanded in poly-ornithine and laminin-coated flasks before harvesting for plating. Cells were dispensed in differentiation media supplemented with Noggin (R&D Systems; 100 ng/ml), Neurotrophin 3 (R&D Systems; 10 ng/ml), cAMP (Sigma; 50 μM), and IGF-1 (R&D Systems; 100 ng/ml)) using a Biotek EL406 Microplate Washer Dispenser (Biotek) equipped with 5 μL dispense cassette (Biotek), into poly-D-lysine/laminin (Sigma, L2020; 4 μg/ml)-coated sterile, 384-well, CellCarrier ultra plates (PerkinElmer), to a final density of 12,500 cells per well and allowed to attach for 45 min before addition of drug. A 3 mM stock of bioactive compound library in dimethylsulphoxide (DMSO) were prepared in an Abgene storage 384-well plate (ThermoFisher Scientific; AB1055). These were added to assay plates using a 50 nL solid pin tool attached to Janus automated workstation (Perkin Elmer), resulting in a final screening concentration of 2 μM. Cells were incubated at 37° C. for 1 hour and then T3 (Sigma; 40 ng/ml) was added to all wells except negative controls, to which FGF (20 ng/ml) was added instead. Negative controls and T3-alone were included in each assay plate. After incubation at 37° C. for 72 h, cells were fixed, washed and stained similar to 96-well OPC assay protocol, although all the washing steps were performed using a Biotek EL406 Microplate Washer Dispenser (Biotek) equipped with a 96-well aspiration manifold. Cells were stained with DAPI (Sigma; 1 μg/ml) and MBP antibody (Abeam, ab7349; 1:100). Plates were imaged on the Operetta High Content Imaging and Analysis system (PerkinElmer) and a set of 4 fields captured from each well resulting in an average of 700 cells being scored per well. Analysis was performed as in High-Content Imaging and Analysis, above. All plates for the primary screen were processed and analyzed simultaneously to minimize variability. Molecules causing more than 20% reduction in nuclear count relative to DMSO control wells were removed from consideration, and hits were called on the basis of largest fold-increase in percentage of MBP+ oligodendrocytes relative to DMSO controls within the same plate.

rat CYP51 = biological target: T2, rat CYP51 (Rattus norvegicus, UniProt Q64654); experiment: CYP51 enzymatic assay (LC/MS quantitation of FF-MAS); assay type: biochemical
T2 construct: purchased Cypex, Inc
T2 sequence (Q64654 1-503): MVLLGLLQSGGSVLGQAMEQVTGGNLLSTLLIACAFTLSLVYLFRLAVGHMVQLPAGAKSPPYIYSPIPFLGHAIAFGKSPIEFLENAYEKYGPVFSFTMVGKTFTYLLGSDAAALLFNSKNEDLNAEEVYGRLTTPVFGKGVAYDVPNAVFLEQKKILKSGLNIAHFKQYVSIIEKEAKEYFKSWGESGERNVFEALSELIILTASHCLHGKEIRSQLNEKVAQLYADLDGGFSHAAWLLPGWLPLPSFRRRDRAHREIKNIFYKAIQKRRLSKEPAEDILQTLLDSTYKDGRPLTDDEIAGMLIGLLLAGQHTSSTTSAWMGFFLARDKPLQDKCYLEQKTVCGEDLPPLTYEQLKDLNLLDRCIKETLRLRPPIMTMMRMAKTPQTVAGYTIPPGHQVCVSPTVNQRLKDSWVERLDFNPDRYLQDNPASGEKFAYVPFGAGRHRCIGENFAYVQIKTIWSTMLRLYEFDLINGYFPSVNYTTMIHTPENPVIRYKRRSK
Protocol: Finally, 15 μl of each reaction/isopropanol mixture was injected onto a SCIEX Triple Quad 6500 LC-MS/MS system using an APCI ion source in positive ion mode with a Shimadzu UFLC-20AD HPLC and a Phenomenex

[2] = listed as Raloxifene hydrochloride, HCl

OCCOc1ccc(/C(=C(/CCCl)c2ccccc2)c2ccccc2)cc1 [ospemifene, Ospemifene]
antiestrogen effects on estrogen-dependent growth (T47D cells): comparable antiestrogen effects
formation of MBP+ oligodendrocytes from OPCs [1]: did not enhance differentiation to MBP+ oligodendrocytes
cholesterol pathway enzyme inhibited in OPCs (from sterol profile) (OPCs): did not inhibit EBP in OPCs

COc1ccc(S(=O)(=O)N2CCC(N3CCC(C)CC3)CC2)cc1 [TASIN-1, Tasin-1]
formation of MBP+ oligodendrocytes from OPCs [1]: enhanced formation of MBP+ oligodendrocytes
inhibition of EBP enzymatic activity (EBP): clear inhibition

O=C(c1ccc(OCCN2CCCCC2)cc1)c1c(-c2ccc(O)cc2)sc2cc(O)ccc12 [Raloxifene HCl]
% Oligos (OPCs (OPC-1 derivation); HCl): 35.01%
% Oligos (OPCs (OPC-1 derivation); [2]): 33.33%
fold-change in % MBP + oligodendrocytes (OPCs (OPC-1 derivation); [2]): 3.77

CC(=O)N1CCN(c2ccc(OC[C@@H]3CO[C@](Cn4ccnc4)(c4ccc(Cl)cc4Cl)O3)cc2)CC1 (stereo in doubt) [R-trans-Ketoconazole]
inhibition of mammalian CYP51 in vitro (rat CYP51): strikingly less effective at inhibiting mammalian CYP51

Clc1ccccc1C(c1ccccc1)(c1ccccc1)n1ccnc1 [Clotrimazole]
% Oligos (OPCs (OPC-1 derivation)): 34.36% and 27.93%
fold-change in % MBP + oligodendrocytes (OPCs (OPC-1 derivation)): 5.88

CN1CCC[C@@H]1CCO[C@](C)(c1ccccc1)c1ccc(Cl)cc1 [clemastine, Clemastine]
sterol levels / sterol intermediate accumulation in OPCs (OPCs; GC/MS): induced accumulation of zymostenol and zymosterol and decreased basal sterol levels

Varenicline tartrate
cell viability (% relative to DMSO) (OPCs (OPC-1 derivation)): 144.02%
% Oligos (OPCs (OPC-1 derivation)): 22.86%

Cl.O[Si](CCCN1CCCCC1)(c1ccc(F)cc1)C1CCCCC1 (stereo not drawn) [Hexahydro-sila-difenidol hydrochloride, p-fluoro analog]
% Oligos (OPCs (OPC-1 derivation)): 26.76%

Cc1cc(NC(=O)Nc2ccc(N(C)C)cc2)c2cc(F)cc(F)c2n1 [SB408124]
cell viability (% relative to DMSO) (OPCs (OPC-1 derivation)): 106.19%
% Oligos (OPCs (OPC-1 derivation)): 39.63%

OCCOCCN1CCN(C(c2ccccc2)c2ccc(Cl)cc2)CC1 (stereo not drawn) [hydroxyzine, Hydroxyzine]
inhibition of EBP enzymatic activity (EBP): directly inhibiting EBP enzymatic activity

OC(Cn1cncn1)(Cn1cncn1)c1ccc(F)cc1F [fluconazole, Fluconazole]
inhibition of mammalian CYP51 in vitro (rat CYP51): did not inhibit mammalian CYP51 in vitro

CCN(CC)CCCCCCCCOC(=O)c1cc(OC)c(OC)c(OC)c1.Cl [TMB-8 hydrochloride]
cell viability (% relative to DMSO) (OPCs (OPC-1 derivation)): 139.42%
% Oligos (OPCs (OPC-1 derivation)): 18.47%

(±)-Vesamicol
cell viability (% relative to DMSO) (OPCs (OPC-1 derivation)): 112.02%
% Oligos (OPCs (OPC-1 derivation)): 34.23%

Ifenprodil Tartrate
cell viability (% relative to DMSO) (OPCs (OPC-1 derivation)): 103.79%
% Oligos (OPCs (OPC-1 derivation)): 41.41%
% Oligos (OPCs (OPC-1 derivation); listed as ifenprodil tartrate): 33.69%
fold-change in % MBP + oligodendrocytes (OPCs (OPC-1 derivation)): 4.89
fold-change in % MBP + oligodendrocytes (OPCs (OPC-1 derivation); listed as ifenprodil tartrate): 3.61
cell viability (% relative to DMSO) (OPCs (OPC-1 derivation); listed as ifenprodil tartrate): 106.02%

Clc1ccc(C(Cn2ccnc2)OCc2c(Cl)cccc2Cl)c(Cl)c1 (stereo not drawn) [Isoconazole nitrate]
% Oligos (OPCs (OPC-1 derivation)): 53.25%

Cl.Cl.OCCOCCN1CCN(C(c2ccccc2)c2ccc(Cl)cc2)CC1 (stereo not drawn) [Hydroxyzine 2HCl]
cell viability (% relative to DMSO) (OPCs (OPC-1 derivation)): 134.19%
% Oligos (OPCs (OPC-1 derivation)): 40.63%
fold-change in % MBP + oligodendrocytes (OPCs (OPC-1 derivation)): 4.80

CC(C)CCC[C@@H](C)[C@H]1CC[C@H]2C3=C(CC[C@]12C)[C@@]1(C)CC[C@H](O)C[C@@H]1CC3 [zymostenol, Zymostenol]
formation of MBP+ oligodendrocytes from OPCs [1]: enhanced the formation of MBP+ oligodendrocytes

Cl.Clc1ccc(N2CCN(Cc3c[nH]c4ncccc34)CC2)cc1 [L-745,870 hydrochloride]
% Oligos (OPCs (OPC-1 derivation)): 32.61%

C[C@]12CC[C@@H]3c4ccc(O)cc4C[C@@H](CCCCCCCCC[S+]([O-])CCCC(F)(F)C(F)(F)F)[C@H]3[C@@H]1CC[C@@H]2O (stereo partly drawn) [Fulvestrant]
cholesterol pathway enzyme inhibited in OPCs (from sterol profile) (OPCs; GC/MS, 24 h): targeted CYP51

C=C(c1ccc(C(=O)O)cc1)c1cc2c(cc1C)C(C)(C)CCC2(C)C [bexarotene, Bexarotene]
sterol levels / sterol intermediate accumulation in OPCs (OPCs; GC/MS): minimal effects on sterol levels

CC(C)=CCC[C@@H](C)[C@H]1CC[C@@]2(C)C3=C(CC[C@]12C)[C@@]1(C)CC[C@H](O)C(C)(C)[C@@H]1CC3 [lanosterol, Lanosterol]
formation of MBP+ oligodendrocytes from OPCs [1]: enhanced formation of MBP+ oligodendrocytes in a dose-responsive fashion

CC(C)CCC[C@@H](C)[C@H]1CC[C@H]2[C@@H]3CC=C4C[C@@H](O)CC[C@]4(C)[C@H]3CC[C@]12C [cholesterol, Cholesterol]
formation of MBP+ oligodendrocytes from OPCs [1]: ineffective

CC(=O)N1CCN(c2ccc(OC[C@H]3CO[C@@](Cn4ccnc4)(c4ccc(Cl)cc4Cl)O3)cc2)CC1 (stereo in doubt) [S-trans-Ketoconazole]
inhibition of mammalian CYP51 in vitro (rat CYP51): strikingly less effective at inhibiting mammalian CYP51

CC(C)CCC[C@@H](C)[C@H]1CC=C2C3=C(CC[C@@]21C)[C@@]1(C)CCC(O)CC1CC3 (stereo partly drawn) [14-dehydrozymostenol, cholesta-8,14-dien-β-ol]
formation of MBP+ oligodendrocytes from OPCs [1]: enhanced the formation of MBP+ oligodendrocytes

N[C@@H](Cc1cc(I)c(Oc2ccc(O)c(I)c2)c(I)c1)C(=O)O [liothyronine, Liothyronine]
sterol levels / sterol intermediate accumulation in OPCs (OPCs; GC/MS): minimal effects on sterol levels

CN1[C@@H]2CC[C@H]1C[C@@H](OC(c1ccccc1)c1ccccc1)C2 [benztropine, Benztropine]
sterol levels / sterol intermediate accumulation in OPCs (OPCs; GC/MS): induced accumulation of zymostenol and zymosterol and decreased basal sterol levels
inhibition of EBP enzymatic activity (EBP): clear inhibition

CCC(C)(C)c1ccc(CC(C)CN2C[C@@H](C)O[C@@H](C)C2)cc1 (stereo partly drawn) [amorolfine, Amorolfine]
formation of MBP+ oligodendrocytes from OPCs [1]: enhanced formation of MBP+ oligodendrocytes

Source: patent US12403104B2, “Compounds and methods of promoting myelination” (Case Western Reserve University, priority 2016, dated 2025)
